How the values were obtained:
prolactin (PRL) = experiment: ELISA of prolactin content in serum of rats with prolactinoma and adrenocorticotrophic hormone adenoma; type: in vivo, F344 rats (Rattus norvegicus); conditions: oral gavage 40, 20, 10 mg/kg once a day for 30 days; vs model group
Excerpt: 70 rats of the prolactinoma and adrenocorticotrophic hormone adenoma model as established in Step 1.1 “Establishment of Rattus norvegicus pituitary tumor model” and normal rats of the control group are used as samples.
The 70 F344 rats are randomly divided into the normal group, operation group, model group, positive drug group (bromocriptine positive drug group), high-dose hordenine group, medium-dose hordenine group, and low-dose hordenine group, […]. Except rats in the normal group and the operation group, rats in the other groups are all made into rats with prolactinoma and adrenocorticotrophic hormone adenoma.
Rats in the positive drug group are given an aqueous bromocriptine solution by gavage at a dose of 0.45 mg/kg. Rats in the high-, medium- and low-dose groups of an aqueous solution of hordenine are given an aqueous solution of hordenine by oral gavage at a dose of 40 mg/kg, 20 mg/kg, and 10 mg/kg, respectively. Rats in the normal group and the model group are given the same dose of distilled water. The administration is performed once a day for 30 days, and during this period of time, the rats are weighed every five days and the changes in body weight are recorded. […]
The contents of PRL and IL-β in the serum of rats in each group are determined by ELISA according to the procedures in the ELISA kit instructions.

SD rats = experiment: Toxicity prediction (pre-experiment); type: in vivo; conditions: gavage 0.07 g/kg twice a day
Excerpt: 5 SPF-grade SD rats are randomly selected for toxicity prediction. Another 30 SPF-grade SD rats are randomly selected, wherein half are males, and half are females. After the purchase of the animals, the animals are adaptively fed for one week. The rats are fasted at the night before the experiment (without stopping the provision of water). During the experiment, the animals are randomly divided into 3 groups, which are the control group, the low-dose hordenine treatment group (0.035 g/kg), and the high-dose hordenine treatment group (0.07 g/kg).
7 mg/ml of hordenine solution (the theoretical maximum solubility of hordenine is 7 mg/ml) is used for pre-experiment to observe the survival of rats. 5 SPF-grade SD rats are randomly selected, and hordenine is administered by gavage at the maximum dose of 0.07 g/kg, twice a day, with an interval of no less than 4 hours, 1 day of administration, and 7 days of observation. The poisoning, death, and amounts of food and water consumed by the rats are daily observed and recorded. For rats that die during the experiment, they are immediately dissected to find the cause of death. After the completion of the experiment, all dying rats will be dissected to remove the heart, liver, spleen, lung and kidney for visual observation, and pathological sections of each organ are made to roughly determine the target organ of toxicity.

For `CN(C)CCc1ccc(O)cc1` [hordenine, 4-(2-dimethylaminoethyl)phenol], the “expression of PRL in serum (ELISA)” value (prolactin (PRL)) was “significantly inhibit”, the “time to recovery of reduced activity after treatment” value (SD rats; 1 day) was “about 2 hours” and the “death of rats within 7 days” value (SD rats; 1 day of administration, 7 days of observation) was “no rats die”. For the same compound, the general clinical signs (SD rats; 1 day, 7 days of observation) was “no other adverse reactions”.
